# Experimental data: patent US9663501B1, “Process for preparing a novel crystalline form of thifensulfuron-methyl and use of the same” (ROTAM AGROCHEM INTERNATIONAL COMPANY LIMITED, priority 2015, dated 2017)
# Columns and labels:
# [1] = Cleanout test (residue in polyethylene bottles, acetonitrile extract, HPLC); format: physicochemical; details: for Cleanout rating (concentration of thifensulfuron-methyl in the acetonitrile solution): lower rating = more effective cleanout
# Protocol: The test was conducted by dispersing in water a sample to produce a concentration that is normally used when applying the herbicide: 25% thifensulfuron-methyl. The sample was added to tap water (300 mL) in a 400 mL beaker and magnetically stirred for 2 minutes. The mixture was then stirred for 2 minutes, whereupon the resulting dispersion was dispensed in three 100 mL aliquots to 4-oz (118 mL) polyethylene bottles. The bottles were capped, inverted twice and allowed to stand overnight.
# After standing overnight, each individual bottle was inverted twice and the liquid contents were then poured out. Tap water (10 mL) was added and the bottle was inverted until all sediment was re-suspended, whereupon the contents were poured out. Tap water (100 mL) was added and the bottle was inverted twice and then allowed to stand undisturbed for 10 minutes. The bottle was inverted twice more and the contents were poured out. Acetonitrile (10 mL) was added to the bottle to extract any remaining material. The acetonitrile solution was analyzed by reversed-phase liquid chromatography with UV detection. The cleanout rating (the concentration of thifensulfuron-methyl herbicide in the acetonitrile solution) is reported in % in Table 6 below.
# [2] = Viscosity (stated in words, no method given); format: physicochemical
SMILES,Cleanout rating (concentration of thifensulfuron-methyl in the acetonitrile solution) ([1]; OD formulation),Cleanout rating (concentration of thifensulfuron-methyl in the acetonitrile solution) ([1]; SG formulation),Cleanout rating (concentration of thifensulfuron-methyl in the acetonitrile solution) ([1]; WG formulation),"Viscosity, in words ([2]; listed as thifensulfuron-methyl in amorphous state)","Cleanout properties, in words ([1]; compared with known amorphous thifensulfuron-methyl product)","Viscosity, in words ([2]; listed as crystalline modification I of thifensulfuron-methyl)"
"COC(=O)c1sccc1S(=O)(=O)NC(=O)Nc1nc(C)nc(OC)n1 [Amorphous thifensulfuron-methyl, methyl 3-(4-methoxy-6-methyl-1,3,5-triazin-2-ylcarbamoylsulfamoyl)thiophene-2-carboxylate, reference compound]",26%,10%,13%,highly viscous,–,–
"COC(=O)c1sccc1S(=O)(=O)NC(=O)Nc1nc(C)nc(OC)n1 [Thifensulfuron-methyl, crystalline modification I] [methyl 3-(4-methoxy-6-methyl-1,3,5-triazin-2-ylcarbamoylsulfamoyl)thiophene-2-carboxylate]",5%,0.1%,2%,–,markedly superior cleanout properties,significant decrease in its viscosity
